# ChEMBL document CHEMBL4266054, “Kinase Inhibitors for Treatment of Cancer and Inflammation” (ACS Med Chem Lett, 2018)
# Experiments:
# [1] = molecular target: T1, Serine/threonine-protein kinase TBK1 (Homo sapiens) (UniProt Q9UHD2); experiment: Inhibition of TBK1 (unknown origin) using fluorescein-labelled DRHDSGLDSMKDE as substrate after 1 hr by TR-FRET assay
# T1 sequence (whole entry): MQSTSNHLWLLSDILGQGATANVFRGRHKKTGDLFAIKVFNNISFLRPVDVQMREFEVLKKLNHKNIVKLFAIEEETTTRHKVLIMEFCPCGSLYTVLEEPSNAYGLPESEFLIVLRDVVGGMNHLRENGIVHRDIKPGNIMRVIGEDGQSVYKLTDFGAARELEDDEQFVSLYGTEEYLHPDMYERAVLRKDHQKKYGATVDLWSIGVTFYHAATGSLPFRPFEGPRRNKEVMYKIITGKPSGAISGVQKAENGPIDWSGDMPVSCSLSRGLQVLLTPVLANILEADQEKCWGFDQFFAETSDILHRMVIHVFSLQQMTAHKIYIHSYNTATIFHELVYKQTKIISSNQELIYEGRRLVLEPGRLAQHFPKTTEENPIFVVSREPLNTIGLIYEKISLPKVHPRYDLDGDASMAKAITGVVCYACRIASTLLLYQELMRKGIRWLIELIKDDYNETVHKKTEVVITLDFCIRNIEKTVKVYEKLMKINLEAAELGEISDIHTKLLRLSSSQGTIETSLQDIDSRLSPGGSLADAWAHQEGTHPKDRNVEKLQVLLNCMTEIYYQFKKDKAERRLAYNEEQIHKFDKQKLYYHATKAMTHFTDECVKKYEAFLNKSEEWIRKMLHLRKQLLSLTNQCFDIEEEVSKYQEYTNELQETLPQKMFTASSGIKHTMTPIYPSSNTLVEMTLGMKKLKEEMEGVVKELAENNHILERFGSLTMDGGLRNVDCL
# [2] = molecular target: T2, Inhibitor of nuclear factor kappa-B kinase subunit epsilon (Homo sapiens) (UniProt Q14164); experiment: Inhibition of IKK-epsilon (unknown origin) using fluorescein-labelled DRHDSGLDSMKDE as substrate after 1 hr by TR-FRET assay
# T2 sequence (whole entry): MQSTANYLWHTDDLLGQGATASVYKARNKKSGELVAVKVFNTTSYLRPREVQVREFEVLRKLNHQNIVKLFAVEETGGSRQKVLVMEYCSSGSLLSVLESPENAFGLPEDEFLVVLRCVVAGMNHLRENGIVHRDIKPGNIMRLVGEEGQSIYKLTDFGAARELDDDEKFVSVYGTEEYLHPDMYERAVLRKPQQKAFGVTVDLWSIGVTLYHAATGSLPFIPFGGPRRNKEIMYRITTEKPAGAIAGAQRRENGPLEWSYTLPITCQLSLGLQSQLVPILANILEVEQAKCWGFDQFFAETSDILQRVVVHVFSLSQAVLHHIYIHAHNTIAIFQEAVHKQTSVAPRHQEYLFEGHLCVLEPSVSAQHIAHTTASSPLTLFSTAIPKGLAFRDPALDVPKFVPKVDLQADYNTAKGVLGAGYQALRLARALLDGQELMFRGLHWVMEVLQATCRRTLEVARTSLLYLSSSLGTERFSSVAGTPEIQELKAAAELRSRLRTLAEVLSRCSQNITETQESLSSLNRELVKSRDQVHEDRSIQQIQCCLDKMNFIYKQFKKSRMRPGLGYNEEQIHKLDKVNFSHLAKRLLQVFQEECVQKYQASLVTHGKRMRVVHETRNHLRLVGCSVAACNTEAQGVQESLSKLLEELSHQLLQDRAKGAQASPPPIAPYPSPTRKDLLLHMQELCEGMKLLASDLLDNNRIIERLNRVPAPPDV
# [3] = Half life in Balb/c mouse at 0.5 mg/kg, iv by mass spectrometry; type: ADME, organism-based; conditions: in vivo
# [4] = Volume of distribution in Balb/c mouse at 0.5 mg/kg, iv by mass spectrometry; type: ADME, organism-based; conditions: in vivo
# [5] = molecular target: Serine/threonine-protein kinase SIK2 (Homo sapiens) (UniProt Q9H0K1); experiment: Inhibition of human SIK2 using AMARAASAAALARRR as substrate in presence of [gamma33P]ATP by kinase hotspot assay
# Serine/threonine-protein kinase SIK2 (Homo sapiens), sequence (Q9H0K1 whole entry, looked up): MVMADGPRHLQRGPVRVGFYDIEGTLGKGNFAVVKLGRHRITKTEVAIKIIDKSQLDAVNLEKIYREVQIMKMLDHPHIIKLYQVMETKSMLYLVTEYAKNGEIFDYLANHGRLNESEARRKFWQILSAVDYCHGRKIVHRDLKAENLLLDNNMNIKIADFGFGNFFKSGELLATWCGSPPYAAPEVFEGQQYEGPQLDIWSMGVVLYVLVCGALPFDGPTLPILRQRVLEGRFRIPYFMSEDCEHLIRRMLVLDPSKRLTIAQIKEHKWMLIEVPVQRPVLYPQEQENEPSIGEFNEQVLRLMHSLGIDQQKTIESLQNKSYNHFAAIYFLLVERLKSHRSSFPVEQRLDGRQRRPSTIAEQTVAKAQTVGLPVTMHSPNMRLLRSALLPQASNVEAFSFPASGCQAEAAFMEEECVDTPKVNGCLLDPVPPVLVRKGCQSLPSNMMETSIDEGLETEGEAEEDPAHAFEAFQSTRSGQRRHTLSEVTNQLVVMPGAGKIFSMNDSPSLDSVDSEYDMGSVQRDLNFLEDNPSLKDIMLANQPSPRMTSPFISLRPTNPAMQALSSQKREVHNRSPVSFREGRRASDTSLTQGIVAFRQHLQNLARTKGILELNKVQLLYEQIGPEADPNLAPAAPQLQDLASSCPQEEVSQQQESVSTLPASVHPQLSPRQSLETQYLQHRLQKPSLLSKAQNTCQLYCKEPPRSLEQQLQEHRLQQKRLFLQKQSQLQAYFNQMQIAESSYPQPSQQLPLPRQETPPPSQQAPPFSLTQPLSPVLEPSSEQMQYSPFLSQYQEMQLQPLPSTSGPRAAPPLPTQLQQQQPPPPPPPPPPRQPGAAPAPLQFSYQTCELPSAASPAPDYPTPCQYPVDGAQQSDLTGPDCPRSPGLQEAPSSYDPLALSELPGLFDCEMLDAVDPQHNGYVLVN
SMILES,INH [1] [nM],INH [2] [nM],half-life [3] [min],Vd [4] [L/kg],INH [5] [nM]
N#Cc1cc(-c2ccnc(Nc3ccc(CN4CCNC(=O)C4)nc3)n2)cnc1N1CC[C@H](F)C1,< 15,< 15,–,–,–
CCN1CCN(Cc2ccc(Nc3nccc(-c4cnc(N5CC[C@@H](F)C5)c(C#N)c4)n3)cn2)CC1,20,21,–,–,–
CCN1CCN(Cc2ccc(Nc3nccc(-c4cnc(N5CC[C@H](F)C5)c(C#N)c4)n3)cn2)CC1,9,16,–,–,7

# Next, values leading:
INH [1] [nM],INH [2] [nM],half-life [3] [min],Vd [4] [L/kg],INH [5] [nM],SMILES
17,24,–,–,–,CN1CCN(Cc2ccc(Nc3nccc(-c4cnc(N5CC[C@H](F)C5)c(C#N)c4)n3)cn2)CC1
< 30,< 30,30,–,–,N#Cc1cc(-c2ccnc(Nc3ccc(NC(=O)CN4CCOCC4)nc3)n2)cnc1N1CC[C@H](F)C1
< 15,< 15,30,0.3,–,N#Cc1cc(-c2ccnc(Nc3ccc(CN4CCOCC4)nc3)n2)cnc1N1CC[C@H](F)C1
